PMC6825211 (Nature Communications, 2019)
Values joined by “and” are separate entries in the source; they are usually repeats but may differ in a detail not shown here. Equal values may be shown once.

Tests used:
[1] = molecular target: JNK2 (Homo sapiens, UniProt P45984); experiment: Nanosyn kinase profiling, mobility shift assay; details: read-out: % inhibition by neratinib
[2] = tested on: isolated islets from db/db mice; experiment: Ex vivo β-cell apoptosis (TUNEL) in isolated db/db islets; format: cell-based, mouse; details: for TUNEL%: dbdb islets with Nera
[3] = tested on: obese diabetic Lepr db/db mice; experiment: db/db model: ipITT; format: in vivo, mouse; parameters: ipITT: unit not given here; details: for ipITT normalized to 100: MEAN
Excerpt: Data are representative of six mice per group (n = 6 for (a–f)). g–j Mice were killed at day 31. g β-cell mass (given as percentage of the whole pancreatic section from ten sections spanning the width of the pancreas; n = 5 mice/group) and quantitative analyses from triple stainings for (h) TUNEL, (i) Ki67, (j) pHH3, and (k) nuclear PDX1 expression, insulin, and DAPI expressed as percentage of TUNEL-, Ki67-, pHH3-, or nuclear PDX1-positive β-cells ± SEM. An average number of 13667 (h), 5937 (i), 7108 (j), or 4330 (k) β-cells were counted from n = 3–5 (h, i, k) or n = 5–6 (j) mice/group.
For intraperitoneal glucose tolerance tests, mice were fasted 12 h overnight and injected i.p. with glucose (40%; B.Braun, Melsungen, Germany) at a dose of 1 g/kg body weight. Blood samples were obtained at time points 0, 15, 30, 60, 90, and 120 min for glucose measurements by using a Glucometer. For i.p. insulin tolerance tests, mice were injected with 0.75 U/kg body weight recombinant human insulin (Novolin, Novo Nordisk) after 4–5-h fasting, and glucose concentration was determined with the Glucometer. Insulin secretion was measured before (0 min) and after (15 and 30 min) i.p. injection of glucose (2 g/kg) and measured by using ultrasensitive mouse Elisa kit (ALPCO Diagnostics, Salem, NH).

[4] = molecular target: PIM-1-KINASE (Homo sapiens, UniProt P11309); experiment: Nanosyn kinase profiling, mobility shift assay; details: read-out: % inhibition by neratinib
[5] = molecular target: PAK2 (Homo sapiens, UniProt Q13177); experiment: biochemical; details: read-out: % inhibition by neratinib
[6] = tested on: obese diabetic Lepr db/db mice; experiment: db/db model: β-cell proliferation (pHH3); format: in vivo, mouse; details: dbdb mice
[7] = molecular target: DYRK1A (Homo sapiens, UniProt Q13627); experiment: Nanosyn kinase profiling, mobility shift assay; details: read-out: % inhibition by neratinib
[8] = molecular target: JAK1 (Homo sapiens, UniProt P23458); experiment: Nanosyn kinase profiling, mobility shift assay; details: read-out: % inhibition by neratinib
[9] = molecular target: IGF1R (Homo sapiens, UniProt P08069); experiment: Nanosyn kinase profiling, mobility shift assay; details: read-out: % inhibition by neratinib
[10] = tested on: MLD–STZ C57BL/6J mice; experiment: MLD–STZ model: PDX1, NKX6.1, Glut2 immunostaining; format: in vivo, mouse
Procedure: Representative triple stainings for PDX1 (red, a), Glut2 (red, b), or NKX6.1 (red, c), insulin (green), and DAPI (blue) are shown from vehicle-, STZ-, and STZ/Nera-treated mice (n = 8, 4, 9 & 9 mice/group). Scale bar, 100 μm
Mouse pancreases were dissected and fixed in 4% formaldehyde at 4 °C for 12 h before embedding in paraffin[62]. […] Slides were mounted with Vectashield with 4′6-diamidino-2-phenylindole (DAPI) (Vector Labs). β-cell apoptosis was analyzed by the terminal deoxynucleotidyl transferase-mediated dUTP nick-end labeling (TUNEL) technique according to the manufacturer’s instructions (In Situ Cell Death Detection Kit, TMR red; Roche) and double stained for insulin. Fluorescence was analyzed by using a Nikon MEA53200 (Nikon GmbH, Dusseldorf, Germany) microscope, and images were acquired by using NIS-Elements software (Nikon).

[11] = molecular target: P38-ALPHA (Homo sapiens, UniProt Q16539); experiment: Nanosyn kinase profiling, mobility shift assay; details: read-out: % inhibition by neratinib
[12] = tested on: Raw264.7 cells; experiment: RT-PCR of LPS-induced TNFα, IL-1β, IL-6 expression; details: 100 ng/mL LPS 4 h
Excerpt: One microgram of cDNA of each treatment sample was synthesized by using SuperScript III First-Strand Synthesis (Invitrogen). Taqman mouse primers were purchased from ThermoFisher: TNFα (Catalog No. Mm00443258_m1), IL-6 (Catalog No. Mm00446190_m1), IL-1β (Catalog No. Mm00434228_m1), and GAPDH as endogenous housekeeping control (Catalog No. Mm99999915_g1). The qPCR reaction was set up for TNFα, IL-6, IL-1β, and GAPDH individually, with technical triplicates for each gene per treatment sample and performed by the Applied Biosystems ViiA 7 real-time PCR system. The ∆∆CT method was used to analyze the relative changes in gene expression.

[13] = tested on: MLD–STZ C57BL/6J mice; experiment: MLD–STZ model: insulin secretion during ipGTT (stimulatory index); format: in vivo, mouse; details: glucose-stimulated, i.p.
Procedure: C57Bl/6J mice were injected with 40 mg/kg streptozotocin or citrate buffer for 5 consecutive days. […] In d, basal glucose values were normalized to 100%. e Insulin secretion measured from retro-orbital blood draw during an ipGTT measured before (0 min) and 15 min after glucose injection; data are expressed as the ratio of secreted insulin at 15 min/0 min (stimulatory index). f The ratio of secreted insulin and glucose is calculated at fed state. g–i Mice were killed at day 35. g β-cell mass (given as percentage of the whole pancreatic section from ten sections spanning the width of the pancreas) and quantitative analyses from triple staining for h TUNEL or i Ki67, insulin, and DAPI expressed as percentage of TUNEL- or Ki67-positive β-cells ±SEM. An average number of 2331 (h), or 26369 (i) β-cells were counted. n = 9 mice/group for (a); n = 4–12 for (b); n = 5–15 for (c) and (d); n = 12–19 for (e); n = 8–14 for (f); n = 4–9 for (g); n = 4–11 for (h); and n = 6–11 mice/groupfor (i); all from three independent experiments).
For intraperitoneal glucose tolerance tests, mice were fasted 12 h overnight and injected i.p. with glucose (40%; B.Braun, Melsungen, Germany) at a dose of 1 g/kg body weight. […] Insulin secretion was measured before (0 min) and after (15 and 30 min) i.p. injection of glucose (2 g/kg) and measured by using ultrasensitive mouse Elisa kit (ALPCO Diagnostics, Salem, NH).

PAK2, sequence (Q13177 whole entry, species assumed): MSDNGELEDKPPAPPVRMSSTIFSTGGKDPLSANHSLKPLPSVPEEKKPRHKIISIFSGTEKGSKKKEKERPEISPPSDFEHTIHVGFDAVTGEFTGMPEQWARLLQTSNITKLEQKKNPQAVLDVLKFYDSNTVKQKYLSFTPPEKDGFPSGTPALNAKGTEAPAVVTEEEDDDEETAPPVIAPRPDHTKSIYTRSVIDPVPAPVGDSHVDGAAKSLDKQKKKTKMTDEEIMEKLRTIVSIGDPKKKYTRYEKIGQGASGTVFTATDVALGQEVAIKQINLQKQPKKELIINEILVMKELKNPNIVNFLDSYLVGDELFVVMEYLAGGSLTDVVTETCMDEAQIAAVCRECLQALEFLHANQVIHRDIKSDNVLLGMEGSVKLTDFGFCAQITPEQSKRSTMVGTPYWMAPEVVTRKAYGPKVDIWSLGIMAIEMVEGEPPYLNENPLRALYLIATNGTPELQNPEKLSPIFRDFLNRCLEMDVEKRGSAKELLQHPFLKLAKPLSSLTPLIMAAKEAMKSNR
P38-ALPHA, sequence (Q16539 whole entry): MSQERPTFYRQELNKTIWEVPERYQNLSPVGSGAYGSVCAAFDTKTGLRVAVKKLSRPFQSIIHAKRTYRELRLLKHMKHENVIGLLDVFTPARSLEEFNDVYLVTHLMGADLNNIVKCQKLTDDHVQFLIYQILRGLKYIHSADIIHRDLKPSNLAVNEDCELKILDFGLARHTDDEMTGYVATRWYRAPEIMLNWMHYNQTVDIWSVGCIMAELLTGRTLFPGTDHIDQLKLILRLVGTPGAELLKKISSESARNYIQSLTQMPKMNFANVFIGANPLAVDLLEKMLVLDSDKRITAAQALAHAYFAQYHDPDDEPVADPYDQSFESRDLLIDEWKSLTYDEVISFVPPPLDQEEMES
JAK1, sequence (P23458 whole entry): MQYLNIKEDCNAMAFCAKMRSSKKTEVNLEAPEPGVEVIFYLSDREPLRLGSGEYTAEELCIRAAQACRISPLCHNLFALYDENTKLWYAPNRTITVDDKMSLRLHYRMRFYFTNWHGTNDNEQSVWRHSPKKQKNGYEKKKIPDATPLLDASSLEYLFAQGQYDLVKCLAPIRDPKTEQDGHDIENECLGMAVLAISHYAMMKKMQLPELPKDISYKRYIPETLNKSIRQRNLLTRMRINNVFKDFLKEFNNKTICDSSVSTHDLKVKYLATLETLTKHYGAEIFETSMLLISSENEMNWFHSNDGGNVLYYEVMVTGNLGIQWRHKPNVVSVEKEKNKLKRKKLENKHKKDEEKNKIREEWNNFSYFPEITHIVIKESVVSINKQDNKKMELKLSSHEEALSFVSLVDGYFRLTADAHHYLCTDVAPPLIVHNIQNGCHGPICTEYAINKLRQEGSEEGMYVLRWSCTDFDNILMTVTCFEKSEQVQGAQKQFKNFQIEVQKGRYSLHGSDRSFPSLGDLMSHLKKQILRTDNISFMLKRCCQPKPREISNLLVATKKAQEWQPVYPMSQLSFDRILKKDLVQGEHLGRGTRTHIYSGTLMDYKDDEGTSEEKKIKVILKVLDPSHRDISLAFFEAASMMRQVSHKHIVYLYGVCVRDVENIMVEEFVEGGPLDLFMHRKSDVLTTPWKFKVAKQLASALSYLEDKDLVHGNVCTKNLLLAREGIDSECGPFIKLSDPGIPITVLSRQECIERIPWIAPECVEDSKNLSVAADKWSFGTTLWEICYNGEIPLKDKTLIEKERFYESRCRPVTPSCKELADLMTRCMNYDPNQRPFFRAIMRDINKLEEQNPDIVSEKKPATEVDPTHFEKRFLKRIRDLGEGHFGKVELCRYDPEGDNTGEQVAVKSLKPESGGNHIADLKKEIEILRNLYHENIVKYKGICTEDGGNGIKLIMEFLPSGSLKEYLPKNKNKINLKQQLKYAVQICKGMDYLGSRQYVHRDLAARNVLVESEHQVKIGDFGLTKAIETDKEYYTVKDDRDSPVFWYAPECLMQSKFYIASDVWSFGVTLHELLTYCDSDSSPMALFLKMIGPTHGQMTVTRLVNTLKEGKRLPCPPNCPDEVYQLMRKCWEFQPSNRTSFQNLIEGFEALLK
IGF1R, sequence (P08069 31-1367): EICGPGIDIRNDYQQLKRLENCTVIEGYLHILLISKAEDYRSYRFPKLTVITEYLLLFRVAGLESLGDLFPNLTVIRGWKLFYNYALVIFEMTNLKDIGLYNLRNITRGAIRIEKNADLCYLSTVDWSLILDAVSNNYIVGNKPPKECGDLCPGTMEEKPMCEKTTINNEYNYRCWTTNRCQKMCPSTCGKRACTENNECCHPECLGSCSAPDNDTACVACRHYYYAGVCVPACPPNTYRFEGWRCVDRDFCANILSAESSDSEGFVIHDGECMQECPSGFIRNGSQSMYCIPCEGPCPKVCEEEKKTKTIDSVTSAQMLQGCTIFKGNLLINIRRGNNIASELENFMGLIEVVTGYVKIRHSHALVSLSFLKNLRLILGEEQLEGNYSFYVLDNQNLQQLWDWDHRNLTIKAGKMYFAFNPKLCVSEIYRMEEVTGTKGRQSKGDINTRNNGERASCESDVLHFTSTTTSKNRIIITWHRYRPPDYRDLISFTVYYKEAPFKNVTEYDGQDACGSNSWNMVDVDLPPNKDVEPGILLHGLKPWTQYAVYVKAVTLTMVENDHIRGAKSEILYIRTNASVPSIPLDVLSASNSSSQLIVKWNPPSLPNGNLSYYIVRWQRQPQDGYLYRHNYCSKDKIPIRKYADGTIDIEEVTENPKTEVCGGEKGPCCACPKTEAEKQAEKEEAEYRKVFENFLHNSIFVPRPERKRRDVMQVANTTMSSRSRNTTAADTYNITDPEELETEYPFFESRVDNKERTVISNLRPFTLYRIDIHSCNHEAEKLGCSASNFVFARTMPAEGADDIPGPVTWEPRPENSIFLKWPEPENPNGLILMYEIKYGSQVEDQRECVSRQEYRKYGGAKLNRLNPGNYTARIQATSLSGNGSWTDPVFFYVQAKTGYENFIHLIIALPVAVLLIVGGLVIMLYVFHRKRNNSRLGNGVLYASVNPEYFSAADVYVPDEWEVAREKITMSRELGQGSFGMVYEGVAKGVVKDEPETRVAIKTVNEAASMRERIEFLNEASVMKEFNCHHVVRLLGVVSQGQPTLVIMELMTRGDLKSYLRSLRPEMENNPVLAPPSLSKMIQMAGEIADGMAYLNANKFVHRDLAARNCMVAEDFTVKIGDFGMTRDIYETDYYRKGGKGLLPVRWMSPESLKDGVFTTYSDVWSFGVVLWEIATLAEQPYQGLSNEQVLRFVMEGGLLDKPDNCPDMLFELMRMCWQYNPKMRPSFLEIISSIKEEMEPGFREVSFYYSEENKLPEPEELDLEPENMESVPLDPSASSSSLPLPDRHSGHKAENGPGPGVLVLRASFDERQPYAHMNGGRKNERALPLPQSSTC
PIM-1-KINASE, sequence (P11309 whole entry): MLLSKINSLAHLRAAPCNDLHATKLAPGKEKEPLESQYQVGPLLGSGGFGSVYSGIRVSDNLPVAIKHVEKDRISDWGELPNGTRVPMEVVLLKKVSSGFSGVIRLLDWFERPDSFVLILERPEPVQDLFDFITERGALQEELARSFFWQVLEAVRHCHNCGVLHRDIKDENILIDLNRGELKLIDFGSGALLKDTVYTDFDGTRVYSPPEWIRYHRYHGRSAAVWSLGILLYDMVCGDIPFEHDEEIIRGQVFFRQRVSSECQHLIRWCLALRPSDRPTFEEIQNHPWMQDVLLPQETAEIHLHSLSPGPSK
JNK2, sequence (P45984 whole entry): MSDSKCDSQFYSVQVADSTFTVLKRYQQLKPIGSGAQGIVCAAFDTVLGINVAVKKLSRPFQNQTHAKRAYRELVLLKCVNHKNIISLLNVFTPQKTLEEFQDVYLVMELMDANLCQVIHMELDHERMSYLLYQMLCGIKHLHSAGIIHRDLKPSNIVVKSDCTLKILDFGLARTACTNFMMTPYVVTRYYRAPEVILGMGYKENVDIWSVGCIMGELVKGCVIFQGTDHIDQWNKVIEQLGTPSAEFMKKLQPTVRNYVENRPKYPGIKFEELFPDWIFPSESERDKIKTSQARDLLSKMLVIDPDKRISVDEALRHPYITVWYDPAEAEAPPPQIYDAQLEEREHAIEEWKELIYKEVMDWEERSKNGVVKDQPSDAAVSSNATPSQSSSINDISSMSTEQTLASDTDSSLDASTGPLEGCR

Structure (SMILES): CCOc1cc2ncc(C#N)c(Nc3ccc(OCc4ccccn4)c(Cl)c3)c2cc1NC(=O)/C=C/CN(C)C [neratinib]
- inhibition at 10 µM [1]: 84%
- β-cell survival in db/db islets ex vivo ([2]; 10 μM, 24 h): fully restored β-cell survival
- TUNEL% ([2]; MEAN): 1.158%
- TUNEL% ([2]; individual replicates): 1.875% and 1.213% and 0.7124% and 0.9025% and 0.3448% and 1.9025%
- ipITT normalized to 100 ([3]; 0 min after ins): 100
- ipITT normalized to 100 ([3]; 15 min after ins): 132.381
- ipITT normalized to 100 ([3]; 30 min after ins): 111.751
- ipITT normalized to 100 ([3]; 60 min after ins): 88.1279
- ipITT normalized to 100 ([3]; 90 min after ins): 87.8414
- basal glucose lower in neratinib-treated mice after a short fast of 4 h ([3]; db/db): 20%
- response to insulin challenge (ipITT) ([3]; db/db): modestly reduced ability to lower their glucose levels
- AUC ipITT ([3]; insert 8d, normalized to 100, individual mice): 11197.2 and 9260.59 and 10559.8 and 6670.17 and 8196.06 and 9385.6
- MEAN AUC ipITT ([3]; insert 8d, normalized to 100, mean): 9211.58
- ipITT ([3]; time 0, MEAN): 336.667
- ipITT ([3]; time 0, individual mice): 327 and 354 and 301 and 357 and 292 and 389
- ipITT ([3]; time 15, MEAN): 444.667
- ipITT ([3]; time 15, individual mice): 477 and 480 and 417 and 432 and 371 and 491
- ipITT ([3]; time 30, MEAN): 371.5
- ipITT ([3]; time 30, individual mice): 455 and 383 and 437 and 224 and 323 and 407
- ipITT ([3]; time 60, MEAN): 297.167
- ipITT ([3]; time 60, individual mice): 397 and 342 and 303 and 176 and 182 and 383
- ipITT ([3]; time 90, MEAN): 295.833
- ipITT ([3]; time 90, individual mice): 324 and 270 and 290 and 289 and 230 and 372
- inhibition at 10 µM [4]: 13%
- inhibition at 10 µM [5]: 101%
- pHH3 %/ mouse ([6]; Mean): 0.4112%
- pHH3 %/ mouse ([6]; individual mice): 0.7567% and 0.6289% and 0.2824% and 0.1109% and 0.2748% and 0.4135%
- inhibition at 10 µM [7]: 3%
- inhibition at 10 µM [8]: 5%
- inhibition at 10 µM [9]: 37%
- β-cell Glut2 expression ([10]; MLD–STZ mice): restored β-cell Glut2 expression
- loss of nuclear PDX1- and NKX6.1-positive cells and islet architecture in MLD–STZ mice ([10]; mouse, in vivo): markedly attenuated
- inhibition at 10 µM [11]: 15%
- LPS-induced expression of TNFα, IL-1β, and IL-6 [12]: largely inhibited
- impaired insulin secretion in STZ-treated mice [13]: significantly improved
